Key:
LNCaP cells [1] = experiment: Cell growth inhibition (sulforhodamine B assay), LNCaP; type: cell-based, human; conditions: for Sensitivity of LNCaP cells compared with other cell lines: LNCaP the only androgen receptor expressing cell line tested; for IC50: Homo sapiens, LNCaP, SRB assay
Experimental: (§1) Prostate cancer cell lines were obtained from ATCC. All cells were grown in RPMI-1640 medium containing 2 mM L-glutamine supplemented with 10% fetal bovine serum (FBS) and maintained in a 5% CO2/95% air humidified atmosphere at 37° C.
Cells were plated on 96-well plates and incubated with drug-containing culture medium (200 μL/well) for 4 (DU 145, PC-3, PPC-1, and TSU) or 6 (LNCaP) days. Medium was replaced with freshly prepared batches every other day during the incubation. At the end of drug treatment, an aliquot of 50 μL of cold (4° C.) trichloroacetic acid (TCA, 50%) was gently layered on the top of growth medium in each well to make a final TCA concentration of 10%. The mixtures were incubated at 4° C. for 1 hour, and then washed 5 times with tap water to remove TCA, growth medium, low-molecular-weight metabolites, and serum proteins. The plates were air dried overnight. Next, fixed cells were stained with 50 μL of SRB solution (0.4%, wt/vol) for 10 minutes. After staining, SRB solution was decanted, and plates were quickly rinsed 5 times with 1% acetic acid to remove unbound dye and air dried overnight. The cellular protein-bound SRB was then dissolved with 200 μL unbuffered Tris base (10 mM, pH 10.5) for 30 minutes on a rocking platform shaker, and absorbance at 540 nm was measured by a plate reader.
Percentage of cell survival was calculated by absorbance at 540 nm in testing wells divided by absorbance in negative control wells (medium without the test compound). Percentages of cell survival versus drug concentrations were plotted and the concentration of drug that inhibited cell growth by 50% (IC50) was determined by nonlinear regression using WinNonlin (Pharsight Corporation, Mountain View, Calif.).
METHODS: LNCaP, DU145, PC-3, TSU, and PPC-1 cells were cultured in 96-well plates and treated with increasing concentrations of the compound of interest for 4 days. Cell survival was determined by the sulforhodamine B assay and was plotted as a percentage of control (drug-free wells) versus drug concentration. The concentration of drug that inhibited cell growth by 50% (IC50) was determined by non-linear regression. Known anticancer drugs were used as cytotoxic positive controls.

[2] = test system: prostate cancer cell lines DU 145, PC-3, TSU, PPC-1 and LNCaP; experiment: Cell growth inhibition (sulforhodamine B assay), five prostate cancer cell lines together; type: cell-based, human; conditions: statement in words
Experimental: as §1
(§2) Cells were plated on 96-well plates and incubated with drug-containing culture medium (200 μL/well) for 4 (DU 145, PC-3, PPC-1, and TSU) or 6 (LNCaP) days. Medium was replaced with freshly prepared batches every other day during the incubation. At the end of drug treatment, an aliquot of 50 μL of cold (4° C.) trichloroacetic acid (TCA, 50%) was gently layered on the top of growth medium in each well to make a final TCA concentration of 10%. […] The cellular protein-bound SRB was then dissolved with 200 μL unbuffered Tris base (10 mM, pH 10.5) for 30 minutes on a rocking platform shaker, and absorbance at 540 nm was measured by a plate reader.
(§3) Percentage of cell survival was calculated by absorbance at 540 nm in testing wells divided by absorbance in negative control wells (medium without the test compound). […]
(§4) METHODS: LNCaP, DU145, PC-3, TSU, and PPC-1 cells were cultured in 96-well plates and treated with increasing concentrations of the compound of interest for 4 days. Cell survival was determined by the sulforhodamine B assay and was plotted as a percentage of control (drug-free wells) versus drug concentration. […]

[3] = target: T1, cytosolic AR prepared from rat ventral prostates (Rattus norvegicus, UniProt P15207); experiment: Androgen receptor radioligand competitive binding assay (3H-mibolerone)
T1 construct: cytosolic AR prepared from rat ventral prostates; from tissue; host or cells: rat ventral prostate cytosol
T1 sequence (P15207 1-902): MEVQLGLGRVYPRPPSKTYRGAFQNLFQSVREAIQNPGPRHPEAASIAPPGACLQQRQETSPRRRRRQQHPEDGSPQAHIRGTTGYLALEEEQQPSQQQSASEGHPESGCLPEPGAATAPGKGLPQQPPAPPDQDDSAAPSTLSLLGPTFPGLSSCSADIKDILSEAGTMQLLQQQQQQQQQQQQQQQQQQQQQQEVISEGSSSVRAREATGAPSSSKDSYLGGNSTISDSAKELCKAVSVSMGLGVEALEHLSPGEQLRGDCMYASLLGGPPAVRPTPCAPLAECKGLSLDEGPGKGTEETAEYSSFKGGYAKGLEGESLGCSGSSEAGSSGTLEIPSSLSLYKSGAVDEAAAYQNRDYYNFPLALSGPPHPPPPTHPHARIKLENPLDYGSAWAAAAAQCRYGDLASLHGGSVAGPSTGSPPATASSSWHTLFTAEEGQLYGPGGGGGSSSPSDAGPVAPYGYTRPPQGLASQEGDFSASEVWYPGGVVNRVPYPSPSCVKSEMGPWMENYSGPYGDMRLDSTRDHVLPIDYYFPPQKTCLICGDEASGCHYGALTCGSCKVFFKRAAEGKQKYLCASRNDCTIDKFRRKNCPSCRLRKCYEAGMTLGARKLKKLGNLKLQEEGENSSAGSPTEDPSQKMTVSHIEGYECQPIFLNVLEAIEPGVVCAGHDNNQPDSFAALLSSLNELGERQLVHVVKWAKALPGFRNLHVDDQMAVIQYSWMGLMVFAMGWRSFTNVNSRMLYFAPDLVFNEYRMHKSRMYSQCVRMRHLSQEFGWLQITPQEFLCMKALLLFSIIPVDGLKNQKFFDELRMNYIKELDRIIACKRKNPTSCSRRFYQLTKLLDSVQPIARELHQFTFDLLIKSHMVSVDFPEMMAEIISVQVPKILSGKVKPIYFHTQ
Experimental: The AR binding affinity of test compounds was determined by a radioligand competitive binding assay with cytosolic AR prepared from rat ventral prostates. […] After incubation, the protein-bound radioactivity was separated from free radioactivity by HAP precipitation. The bound radioactivity was then extracted from HAP by ethanol, and counted in a Beckman LS6800 liquid scintillation counter (Beckman Instruments Inc., Palo Alto, Calif.). Nonspecific binding was determined separately by including 1,000 nM of unlabeled MIB in the incubate. The binding data was fitted to the equation B=B0*[1-C/(IC50+C)] using WinNonlin.

LNCaP cells [4] = experiment: TUNEL assay (apoptosis, DNA fragmentation); type: cell-based, human; conditions: LNCaP cells exposed for 24 hours, relative to 0.1% DMSO vehicle control
Experimental: METHODS: DNA fragmentation of apoptotic cells was monitored by the TUNEL assay as described by the supplier. Briefly, LNCaP cells were plated at 2×10^5 cells/well in 2-well chamber slides and incubated at 37° C., 5% CO2 for 24 h to allow the cells sufficient time to attach and be in log phase growth at the start of the experiment. The media was aspirated and replaced with media containing vehicle control (DMSO) or drug dissolved in DMSO. The total volume of DMSO/drug added to each well was equal to 0.1% of the media volume in each well. LNCaP cells were treated with vehicle control, and increasing concentrations of Compound 1 and Compound 2 (0.1, 1.0, and 10.0 μM) for 24-48 h. Two wells were treated with the same concentration of the drugs or DMSO for each treatment condition listed above. The media was collected along with the trypsinized cells and centrifuged at 150×g for 4 min. […] Green and red fluorescence emissions were observed microscopically using 520 nm and >620 nm filters, respectively.
RESULTS: The TUNEL assay is used to determine whether cells are undergoing apoptosis (cell death mechanism) as a result of drug treatment. […] TUNEL assay incorporates a dye that labels the 3′ ends of such DNA fragments which are then visualized by fluorescence. […]

LNCaP cells [5] = experiment: Growth curve (trypan blue cell count, 120 h), LNCaP compared with other lines; type: cell-based, human
Experimental: METHODS: Cells were plated at 5-10×10^4 cells/well in five 6-well plates and incubated at 37° C., 5% CO2 for 24 h to allow the cells sufficient time to attach and be in log phase growth at the start of the experiment. The media was aspirated from four of the plates and replaced with media containing vehicle control (DMSO) or drug dissolved in DMSO. The total volume of DMSO/drug added to each well was equal to 0.1% of the media volume in each well. LNCaP, PC-3, MCF-7, and CV-1 cells were treated with vehicle control, and increasing concentrations of Compound 1 and Compound 2 (0.01, 0.05, 0.1, 0.5, 1.0, 5.0, and 10.0 μM). Three wells were treated with the same concentration of the drugs or DMSO for each treatment condition listed above. The cells from the remaining 6-well plate were collected and counted to determine plating efficiency. The 6-well plates containing DMSO/drug were incubated for 120 h at 37° C., 5% CO2. After 120 h, the media from each well was collected along with trypsinized cells and centrifuged at 150×g for 4 min. The cells were resuspended in 1 mL of media, from which 90 μl was taken and combined with 10 μl trypan blue for counting on a hemacytometer.

TSU cells = experiment: Cell growth inhibition (sulforhodamine B assay), TSU; type: cell-based; conditions: Homo sapiens, 96 h, SRB assay, 4 days treatment
Experimental: as §1, §2, §3, §4

PPC-1 cells = experiment: Cell growth inhibition (sulforhodamine B assay), PPC-1; type: cell-based; conditions: Homo sapiens, PPC-1, 96 h, SRB assay, 4 days treatment
Experimental: as §1, §2, §3, §4

DU 145 cells = experiment: Cell growth inhibition (sulforhodamine B assay), DU145; type: cell-based; conditions: Homo sapiens, DU-145, 96 h, SRB assay, 4 days treatment
Experimental: as §1, §2, §3, §4

PC-3 cells = experiment: Cell growth inhibition (sulforhodamine B assay), PC-3; type: cell-based; conditions: Homo sapiens, PC-3, 96 h, SRB assay, 4 days treatment
Experimental: as §1, §2, §3, §4

For C[C@](O)(COc1ccc(NC(=O)CBr)cc1)C(=O)Nc1ccc([N+](=O)[O-])c(C(F)(F)F)c1 [Compound 1], the “Sensitivity of LNCaP cells compared with other cell lines” value (LNCaP cells [1]) was “not more sensitive”, the “IC50 values in inhibiting the growth of all five prostate cancer cell lines” value [2] was “low micro-molar range” and the Ki [3] was 13.9 ± 1.4 nM. For the same compound, the “Apoptosis, DNA fragmentation (green fluorescence)” value (LNCaP cells [4]) was “exhibit green fluorescence” and the “Growth inhibitory activity against various cancer cell lines” value (LNCaP cells [5]; LNCaP versus PC-3, MCF-7 and CV-1 cells, 0.01-10.0 μM) was “non-selective growth inhibitory activity”.

For C[C@](O)(COc1ccc(NC(=O)CCl)cc1)C(=O)Nc1ccc([N+](=O)[O-])c(C(F)(F)F)c1 [Compound 2], the “Sensitivity of LNCaP cells compared with other cell lines” value (LNCaP cells [1]) was “not more sensitive”, the “IC50 values in inhibiting the growth of all five prostate cancer cell lines” value [2] was “low micro-molar range” and the Ki [3] was 1.9 ± 0.3 nM. For the same compound, the “Apoptosis, DNA fragmentation (green fluorescence)” value (LNCaP cells [4]) was “similar” and the “Fold sensitivity of LNCaP cells over PC-3 or CV-1 cells” value (LNCaP cells [5]; growth curve) was “approximately 10 fold”.

C[C@@H]1CC2=CC(=O)CC[C@@H]2[C@H]2CC[C@@]3(C)[C@@H](CC[C@]3(C)O)[C@@H]21 [Compound 3H-MIB, 3H-mibolerone] was tested, and the Kd ([3]; determined in preliminary experiments, read-out: Kd, equilibrium dissociation constant of 3H-MIB) was 0.19 ± 0.01 nM.

In the case of N[C@@H](Cc1ccc(N(CCCl)CCCl)cc1)C(=O)O [Melphalan], the IC50 (LNCaP cells [1]; 4 or 6 days treatment, Melphalan line, unit nM) is reported as 10.3 nM, the IC50 (TSU cells; Melphalan line, unit nM) is reported as 4 ± 0.2 nM and the IC50 (PPC-1 cells; Melphalan line, unit nM) is reported as 16.2 nM. For the same compound, the IC50 (DU 145 cells; Melphalan line, unit nM) was 31 nM and the IC50 (PC-3 cells; Melphalan line, unit nM) was 30.4 ± 3.1 nM.

C[C@@](O)(CBr)C(=O)Nc1ccc([N+](=O)[O-])c(C(F)(F)F)c1 [S-NTBA] showed an IC50 (LNCaP cells [1]; 4 days or 6 days treatment) of 1300 ± 200 nM, an IC50 (TSU cells) of 3500 ± 200 nM and an IC50 (PPC-1 cells) of 2200 ± 200 nM. The IC50 (DU 145 cells) was 4700 ± 300 nM and the IC50 (PC-3 cells) was 3100 ± 500 nM.

— patent publication US20040167103A1, “Haloacetamide and azide substituted compounds and methods of use thereof” (priority 2003, published 2004)
